From US8551937B2, “Peptide having an extending action for half-life of object peptide in plasma” (priority 2008, dated 2013)
Read-outs that look alike come from different tables or passages of the source.

Legend:
NEP = molecular target: T1, NEP (Rattus norvegicus, UniProt P07861); test: NEP resistance in vivo: influence of NEP inhibitor on pharmacokinetic parameters after intravenous administration; conditions: for AUC(0-inf) / C0 / half-life: male, SD, rat, in vivo, iv, 0.02 mg/kg, intravenous 0.02 mg/kg, male rats, N = 3; for AUC(0-inf): read-out: AUC0→∞ (converted); for C0: read-out: C0; for half-life: read-out: T½
T1 construct: male SD strain rats of 7 weeks age (Nippon Charles River; body weight: ca. 250 g) were used; from tissue; host or cells: whole animal: male SD rats (Nippon Charles River), in vivo
T1 sequence (P07861 1-750): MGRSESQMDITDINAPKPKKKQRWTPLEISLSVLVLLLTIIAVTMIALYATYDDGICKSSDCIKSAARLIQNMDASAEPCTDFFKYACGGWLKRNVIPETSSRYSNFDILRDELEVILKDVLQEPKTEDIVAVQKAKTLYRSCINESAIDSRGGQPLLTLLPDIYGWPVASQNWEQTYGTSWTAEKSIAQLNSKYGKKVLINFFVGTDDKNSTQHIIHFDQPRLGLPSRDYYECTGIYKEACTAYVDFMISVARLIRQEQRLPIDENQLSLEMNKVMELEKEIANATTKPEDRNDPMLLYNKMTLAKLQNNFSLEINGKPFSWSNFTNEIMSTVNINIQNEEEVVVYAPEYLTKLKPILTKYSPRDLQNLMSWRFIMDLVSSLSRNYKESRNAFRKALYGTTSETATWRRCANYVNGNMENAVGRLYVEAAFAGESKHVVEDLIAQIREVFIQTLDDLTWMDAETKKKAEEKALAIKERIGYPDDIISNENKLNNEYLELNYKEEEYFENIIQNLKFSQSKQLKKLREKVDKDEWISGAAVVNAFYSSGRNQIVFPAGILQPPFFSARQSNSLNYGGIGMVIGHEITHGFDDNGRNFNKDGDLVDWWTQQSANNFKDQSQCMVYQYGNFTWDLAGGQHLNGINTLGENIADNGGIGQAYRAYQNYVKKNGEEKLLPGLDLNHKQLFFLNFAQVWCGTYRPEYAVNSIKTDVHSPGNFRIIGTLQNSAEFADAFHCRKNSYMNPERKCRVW
Protocol: Further, NEP resistance in vivo of the native CNP-22 and chimeric CNP (B) was evaluated using the effect by the joint use with an NEP inhibitor affecting on changes in CNP immunoreactivity concentration in plasma after the intravenous administration as an index. This test was also carried out using rats into which a polyethylene tube (PE-50, manufactured by Clay […].) was inserted into thigh artery for collection of blood and rats into which a polyethylene tube (PE-10, manufactured by Clay […].) was inserted into thigh vein for administration of an NEP inhibitor under an anesthetizing condition using Nembutal. As a test system, male SD strain rats of 7 weeks age (Nippon Charles River; body weight: ca. 250 g) were used for the experiment where one group comprised 3 rats. […] Time for the administration was from 10 minutes before the administration of the native CNP-22 or the chimeric CNP (B) to completion of blood collection which was 60 minutes after the administration. The native CNP-22 and the chimeric CNP (B) each was administered into the tail vein in a dose of 20 μg/kg and the blood before starting the administration of NEP inhibitor (-10 minutes), before the administration of CNP (0 minute) and until after 60 minutes from the administration was collected by a thigh artery cannula. After a stabilizer and an anticoagulant were added to the collected blood, it was centrifuged to give plasma and the immunoreactivity concentration in the plasma was measured by the above-mentioned competitive RIA. The pharmacokinetic analysis was carried out by the same method as in Example 1.

[1] = CNP immunoreactivity concentration in plasma, half-life after intravenous administration (Example 7); conditions: male, SD, rat, in vivo, 10 nmol/kg
Protocol: The experiment was carried out using rats into which polyethylene tube (PE-50 manufactured by Clay Adams) was previously inserted into thigh artery under an anesthetized condition with Nembutal. As to a test system, male SD strain rats (Nippon Charles River) of 7 weeks age were used where one group comprised 3 rats. Native CNP-22 or chimeric CNP in a dose of 10 nmol/kg was administered into tail vein of the rat and the blood before the administration and until 60 minutes after the administration was collected by a polyethylene tube inserted into the thigh artery. To the collected blood were added EDTA (manufactured by Dojin Laboratories) and aprotinin (manufactured by Bayer) as a stabilizer and an anti-coagulant, respectively and the plasma was separated therefrom by centrifugal separation. CNP immunoreactivity concentration in plasma was measured by a competitive radioimmunoassay (RIA). At that time, a rabbit polyclonal antibody (#2) which specifically recognizes the ring partial structure of the native CNP-22 was used as an antibody and, as a labeled compound, ^125I-[Tyr^0] CNP was used.

[2] = CNP immunoreactivity concentration in plasma after administration to rats (competitive RIA), pharmacokinetic parameters (Example 2); assay type: in vivo, rat; conditions: for half-life: read-out: T½
Protocol: Pharmacokinetic parameters were calculated from the resulting changes in immunoreactivity concentrations in plasma. At that time, WinNonlin Professional Ver. 4.0.1 (manufactured by Pharsight Corporation, U.S.A.) was used as the analytical software. Method for the calculation of each parameter is mentioned as follows.
Concentration at time 0 (C0; extrapolated value, ng/mL), area under the curve for concentration in plasma vs. time (AUC; ng.min/mL) and quenching half-life (T½; minute(s)) were calculated as follows. C0 was calculated as a value at time by means of extrapolation from the changes in immunoreactivity concentration in plasma at each blood collection period. AUC was calculated by a trapezoidal method using the immunoreactivity concentrations in plasma at all measuring points (t) and an extrapolated value until the infinitive time was determined. T½ was calculated by means of a least-squares method from the inclination of a straight line connecting several points in a disappearing phase of the immunoreactivity concentration in plasma. In the case of a subcutaneous administration, C0 was not determined but the maximum concentration in plasma (Cmax; ng/mL) and the time reaching the maximum concentration in plasma (Tmax; min) were determined.
Changes in CNP immunoreactivity concentration in plasma of native CNP-22 and chimeric peptide (chimeric CNP) where a half-life-extension peptide was added to CNP were investigated.
The experiment was conducted in the same manner as in Example 1 that rats where polyethylene tube was previously inserted into thigh artery were used under an anesthetizing condition with Nembutal and male SD strain rats of 7 weeks age (purchased from Nippon Charles River) were used where one group comprised 3 rats. […] At that time, a rabbit polyclonal antibody (#2) recognizing a ring part of native CNP-22 was used as an antibody and ^125I-[Tyr^0] CNP was used as a labeling compound. Pharmacokinetic analysis was carried out by the same method as in Example 1.

[3] = rat, plasma, sc, subcutaneous, 0.1 mg/kg, male rats, N = 3, mean ± SD
[4] = rat, plasma, intravenous, 0.1 mg/kg, male rats, N = 3, mean ± SD

In the case of `CC[C@H](C)[C@@H]1NC(=O)[C@H](CCCNC(=N)N)NC(=O)[C@H](CC(=O)O)NC(=O)[C@H](CC(C)C)NC(=O)[C@H](CCCCN)NC(=O)[C@H](CC(C)C)NC(=O)CNC(=O)[C@H](Cc2ccccc2)NC(=O)[C@@H](NC(=O)CNC(=O)[C@H](CCCCN)NC(=O)[C@H](CO)NC(=O)[C@H](CC(C)C)NC(=O)CN)CSSC[C@@H](C(=O)O)NC(=O)CNC(=O)[C@H](CC(C)C)NC(=O)CNC(=O)[C@H](CO)NC(=O)[C@H](CCSC)NC(=O)[C@H](CO)NC(=O)CNC1=O` [Native CNP-22], the “AUC with NEP inhibitor as compared with the case where the inhibitor was not used” value (NEP; intravenous, rats) is reported as “about 3.7 fold”, the “half-life with NEP inhibitor as compared with the case where the inhibitor was not used” value (NEP; intravenous, rats) is reported as “about 5 fold” and the AUC(0-inf) (NEP; NEP Inhibitor (+)) is reported as 12.6 ng·h/mL. The C0 (NEP; NEP Inhibitor (+)) was 131 ± 32 ng/mL, the half-life (NEP; NEP Inhibitor (+)) was 9.94 ± 1.4 min and the AUC(0-inf) (NEP; NEP Inhibitor (−)) was 3.37 ng·h/mL. For the same compound, the C0 (NEP; NEP Inhibitor (−)) was 145 ± 20 ng/mL, the half-life (NEP; NEP Inhibitor (−)) was 1.96 ± 0.05 min and the half-life [1] was 4.34 min. It also gave an AUC(0-inf) [2, 3] of 17.7 ng·h/mL, a Cmax [2, 3] of 55.6 ± 4.5 ng/mL and a Tmax [2, 3] of 5 min. The half-life [2, 3] was 7.8 ± 0.9 min, the AUC(0-inf) [2, 4] was 25.6 ng·h/mL and the C0 ([2]; rat, plasma, intravenous, 0.1 mg/kg, male rats, N = 3, mean ± SD, extrapolated value) was 1020 ± 273 ng/mL. For the same compound, the half-life [2, 4] was 2.93 ± 0.23 min and the “CNP immunoreactivity concentration in plasma” value ([2]; subcutaneous, after 60 minutes from the administration) was “almost disappeared”.
